In ChEMBL document CHEMBL3112560 (Bioorg Med Chem Lett, 2014):

What was measured:
Rattus norvegicus = species on record: Rattus norvegicus; experiment: Inhibition of VGLUT in rat brain assessed as [3H]-L-Glu uptake into synaptic vesicles at 250 uM relative to control; assay type: tissue-based
[1] = Inhibition of VGLUT (unknown origin); design: species or system Homo sapiens
[2] = Inhibition of VGLUT-mediated [3H]-L-Glu uptake into synaptic vesicles in rat brain; assay type: tissue-based
[3] = Competitive inhibition of VGLUT-mediated [3H]-L-Glu uptake into synaptic vesicles in rat brain by Lineweaver-Burk plot analysis; assay type: tissue-based

CC(=O)O[C@H]1CC[C@@]2(C)C(=CC[C@H]3[C@@H]4CC[C@H](C(C)=O)[C@@]4(C)CC[C@@H]32)C1
inhibition (Rattus norvegicus): 86%

CC(=O)C1CCC2C3CC=C4CC(OS(=O)(=O)O)CCC4(C)C3CCC12C (centres undefined)
inhibition (Rattus norvegicus): 31%

C[C@]12CC[C@@H]3c4ccc(OC(=O)CCC(=O)O)cc4CC[C@H]3[C@@H]1CCC2=O
inhibition (Rattus norvegicus): 109%

Cc1cc(-c2ccc(/N=N/c3c(S(=O)(=O)O)cc4cc(S(=O)(=O)O)cc(N)c4c3O)c(C)c2)ccc1/N=N/c1c(S(=O)(=O)O)cc2cc(S(=O)(=O)O)cc(N)c2c1O [TRYPAN BLUE]
Ki [1]: 0.05 µM

CC(=O)[C@H]1CC[C@H]2[C@@H]3CC=C4C[C@@H](O)CC[C@]4(C)[C@H]3CC[C@]12C
inhibition (Rattus norvegicus): 100%

O=C(O)c1cc(C(=O)O)c2ccc3cc4ccccc4cc3c2n1
IC50 [2]: 70 µM | inhibition (Rattus norvegicus): 26%

CC(=O)[C@H]1CC[C@H]2[C@@H]3CC[C@@H]4C[C@@H](OS(=O)(=O)O)CC[C@]4(C)[C@H]3CC[C@]12C
IC50 [2]: 42 µM | Ki [3]: 22 µM | inhibition (Rattus norvegicus): 15%

N[C@@]1(C(=O)O)CC[C@@H](C(=O)O)C1
Ki [1]: 700 µM

C[C@]12CC[C@@H]3c4ccc(O)cc4CC[C@H]3[C@@H]1CCC2=O
inhibition (Rattus norvegicus): 98%

O=C(O)c1cc(C(=O)O)c2c(ccc3cc4ccccc4cc32)n1
IC50 [2]: 71 µM | inhibition (Rattus norvegicus): 17%
